Data: paper PMC6166404 (Journal of medicinal chemistry, 2018)
Read-outs that look alike come from different tables or passages of the source.

Key:
H37Rv = type: cell-based; conditions: addition of ATc
Mtb H37Rv (ATCC 27294) [1] = conditions: 7H9/ADC/Tween medium, no guanine, 1 week; cited from earlier work
Mtb H37Rv (ATCC 27294) [2] = type: cell-based; conditions: for effect of guanine on MIC: presence of guanine (200 μM); for antibacterial activity over two weeks: two weeks in culture
HepG2 cells = conditions: 24 h; for cytotoxicity (in words) / LD50: LDH release; for cytotoxicity (in words): up to 25 μM; for cytotoxicity, lactate dehydrogenase release: 25 μM, range stated for the three compounds together
human GMPR2 = molecular target: T1, human GMPR2 (Homo sapiens, UniProt Q9P2T1); test: biochemical
T1 sequence (Q9P2T1 1-348): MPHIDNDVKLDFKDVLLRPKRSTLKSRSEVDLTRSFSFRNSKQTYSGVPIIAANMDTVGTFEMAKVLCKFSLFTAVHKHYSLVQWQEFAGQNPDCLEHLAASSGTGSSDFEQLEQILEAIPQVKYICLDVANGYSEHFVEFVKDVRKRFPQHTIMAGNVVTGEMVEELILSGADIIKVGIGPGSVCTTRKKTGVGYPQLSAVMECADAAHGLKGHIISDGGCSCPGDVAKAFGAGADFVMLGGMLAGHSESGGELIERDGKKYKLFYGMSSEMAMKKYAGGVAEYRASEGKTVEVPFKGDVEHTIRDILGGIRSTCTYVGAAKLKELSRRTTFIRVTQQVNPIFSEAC

Hela cells = conditions: 25 μM, LDH release
HEK293T cells = conditions: 25 μM, LDH release
MCF7 cells = conditions: 25 μM, LDH release
[3] = 2 h
human IMPDH2 = human IMPDH2 (Homo sapiens, UniProt P12268); test: biochemical

Compound: COc1ccc(OC(C)C(=O)Nc2ccc3oc(-c4ccncc4)nc3c2)cc1 (stereo not shown) [Compound 1, reference compound]
- effect of ATc on antibacterial activity against the wild-type strain (H37Rv): not affected
- 7H9/ADC/Tween MIC −Gua (Mtb H37Rv (ATCC 27294) [1]): 10 ± 2 (3) μM

Compound: COc1ccc(-c2nc3cc(NC(=O)[C@H](C)Oc4cccc(Cl)c4Cl)ccc3o2)cn1 [Compound 8c, (S)-2-(2,3-dichlorophenoxy)-N-(2-(6-methoxypyridin-3-yl)benzo[d]oxazol-5-yl)propanamide]
- effect of guanine on MIC (Mtb H37Rv (ATCC 27294) [2]): increased in the presence of guanine in 7H9/ADC/Tween medium but not in GAST/Fe

Compound: C[C@H](Oc1cccc(F)c1F)C(=O)Nc1ccc2oc(-c3ccncc3)nc2c1 [Compound 8l, (S)-2-(2,3-Difluorophenoxy)-N-(2-(pyridin-4-yl)benzo[d]oxazol-5-yl)propanamide]
- antibacterial activity over two weeks (Mtb H37Rv (ATCC 27294) [2]; Mtb H37Rv): retained antibacterial activity
- cytotoxicity (in words) (HepG2 cells): Only compounds 8p, 8u and 17b displayed measurable cytotoxicity

Compound: C[C@H](Oc1cccc(F)c1F)C(=O)Nc1ccc2oc(-c3ccc(O)cc3)nc2c1 [Compound 8n, (S)-2-(2,3-Difluorophenoxy)-N-(2-(4-hydroxyphenyl)benzo[d]oxazol-5-yl)propanamide]
- effect of guanine on MIC (Mtb H37Rv (ATCC 27294) [2]): increased substantially in the presence of guanine in both media

Compound: C[C@H](Oc1cccc(F)c1F)C(=O)Nc1ccc2oc(-c3ccc(C#N)cc3)nc2c1 [Compound 8p, (S)-N-(2-(4-Cyanophenyl)benzo[d]oxazol-5-yl)-2-(2,3-difluorophenoxy)propanamide]
- cytotoxicity, lactate dehydrogenase release (HepG2 cells): 9–13%
- LD50 (HepG2 cells): > 25 µM

Compound: COc1ccc(-c2nc3cc(NC(=O)[C@H](C)Oc4ccccc4C#N)ccc3o2)cc1 [Compound 8u, (S)-2-(2-Cyanophenoxy)-N-(2-(4-methoxyphenyl)benzo[d]oxazol-5-yl)propanamide]
- antibacterial activity over two weeks (Mtb H37Rv (ATCC 27294) [2]; Mtb H37Rv): retained antibacterial activity
- cytotoxicity, lactate dehydrogenase release (HepG2 cells): 9–13%
- LD50 (HepG2 cells): > 25 µM

Compound: COc1ccc(-c2nc3cc(NC[C@H](C)Oc4cccc(Cl)c4Cl)ccc3o2)cc1 [Compound 11, (S)-N-(2-(2,3-Dichlorophenoxy)propyl)-2-(4-methoxyphenyl)benzo[d]oxazol-5-amine]
- Ki (human GMPR2): > 5 µM

Compound: C[C@H](Nc1cccc(Cl)c1Cl)C(=O)Nc1ccc2oc(-c3ccc(C#N)cc3)nc2c1 [Compound 17a, (S)-N-(2-(4-Cyanophenyl)benzo[d]oxazol-5-yl)-2-((2,3-dichlorophenyl)amino)propanamide]
- antibacterial activity over two weeks (Mtb H37Rv (ATCC 27294) [2]; Mtb H37Rv): retained antibacterial activity

Compound: C[C@H](Nc1cccc(F)c1F)C(=O)Nc1ccc2oc(-c3ccc(C#N)cc3)nc2c1 [Compound 17b, (S)-N-(2-(4-Cyanophenyl)benzo[d]oxazol-5-yl)-2-((2,3-difluorophenyl)amino)propanamide]
- antibacterial activity over two weeks (Mtb H37Rv (ATCC 27294) [2]; Mtb H37Rv): retained antibacterial activity
- effect of guanine on MIC (Mtb H37Rv (ATCC 27294) [2]): does not change
- effect of ATc on antibacterial activity against the wild-type strain (H37Rv): not affected
- cytotoxicity, lactate dehydrogenase release (HepG2 cells): 9–13%
- LD50 (HepG2 cells): > 25 µM
- cytotoxicity (Hela cells): less than 10%
- cytotoxicity (HEK293T cells): less than 10%
- cytotoxicity (MCF7 cells): less than 10%
- stability in mouse plasma [3]: No decomposition

Compound: CCOC(=O)COc1ccc(-c2nc3cc(NC(=O)[C@H](C)Oc4cccc(Cl)c4Cl)ccc3o2)cc1 [Compound 18a, Ethyl (S)-2-(4-(5-(2-(2,3-dichlorophenoxy)propanamido)benzo[d]oxazol-2-yl)phenoxy)acetate]
- antibacterial activity over two weeks (Mtb H37Rv (ATCC 27294) [2]; Mtb H37Rv): retained antibacterial activity
- effect of ATc on antibacterial activity against the wild-type strain (H37Rv): not affected
- cytotoxicity (in words) (HepG2 cells): Only compounds 8p, 8u and 17b displayed measurable cytotoxicity

Compound: C[C@H](Oc1cccc(Cl)c1Cl)C(=O)Nc1ccc2oc(-c3ccc(OCC(=O)O)cc3)nc2c1 [Compound 19a, (S)-2-(4-(5-(2-(2,3-Dichlorophenoxy)propanamido)benzo[d]oxazol-2-yl)phenoxy)acetic acid]
- cytotoxicity (in words) (HepG2 cells): no cytotoxicity was observed

Compound: C#CCOC(=O)COc1ccc(-c2nc3cc(NC(=O)[C@H](C)Oc4cccc(Cl)c4Cl)ccc3o2)cc1 [Compound 20, Prop-2-yn-1-yl (S)-2-(4-(5-(2-(2,3-dichlorophenoxy)propanamido)benzo[d]oxa-zol-2-yl)phenoxy)acetate]
- antibacterial activity over two weeks (Mtb H37Rv (ATCC 27294) [2]; Mtb H37Rv): retained antibacterial activity
- cytotoxicity (in words) (HepG2 cells): Only compounds 8p, 8u and 17b displayed measurable cytotoxicity

Compound: C[C@H](Oc1cccc(Cl)c1Cl)C(=O)Nc1ccc2oc(-c3ccc(C(=O)NO)cc3)nc2c1 [Compound 21, (S)-4-(5-(2-(2,3-Dichlorophenoxy)propanamido)benzo[d]oxazol-2-yl)-N-hydroxybenzamide]
- antibacterial activity over two weeks (Mtb H37Rv (ATCC 27294) [2]; Mtb H37Rv): retained activity

Compound: C[C@H](Oc1cccc(Cl)c1Cl)C(=O)Nc1ccc2oc(-c3ccc(C(=O)O)cc3)nc2c1 [Compound 22, (S)-4-(5-(2-(2,3-Dichlorophenoxy)propanamido)benzo[d]oxazol-2-yl)benzoic acid]
- antibacterial activity over two weeks (Mtb H37Rv (ATCC 27294) [2]; Mtb H37Rv): retained activity
- effect of ATc on antibacterial activity against the wild-type strain (H37Rv): not affected

Compound: C[C@H](Oc1cccc(Cl)c1Cl)C(=O)Nc1ccc2oc(-c3ccc(-c4nnn[nH]4)cc3)nc2c1 [Compound 27, (S)-N-(2-(4-(1H-Tetrazol-5-yl)phenyl)benzo[d]oxazol-5-yl)-2-(2,3-dichlorophenoxy)propanamide]
- Ki (human IMPDH2): > 5 µM
- Ki (human GMPR2): > 5 µM

Compound: (S)-2-(2,3-Dichlorophenoxy)-N-(2-(2-methoxypyridin-4-yl)benzo[d]oxazol-5-yl)propanamide [Compound 8b]
- 7H9/ADC/Tween MIC +Gua (Mtb H37Rv (ATCC 27294) [2]; Mtb H37Rv, 7H9/ADC/Tween medium, 200 μM guanine, 1 week): 14 ± 5 (2) μM
- 7H9/ADC/Tween MIC −Gua (Mtb H37Rv (ATCC 27294) [2]; Mtb H37Rv, 7H9/ADC/Tween medium, no guanine, 1 week): 3.5 ± 1.2 (2) μM
- GAST/Fe MIC +Gua (Mtb H37Rv (ATCC 27294) [2]; Mtb H37Rv, GAST/Fe medium, 200 μM guanine, 1 week): 6.3 ± 0.0 (2) μM
- GAST/Fe MIC −Gua (Mtb H37Rv (ATCC 27294) [2]; Mtb H37Rv, GAST/Fe medium, no guanine, 1 week): 6.3 ± 0.0 (2) μM
